# US12227520B2 (priority 2019, dated 2025)
# Like-named read-outs stand apart in the source and are kept apart here.
# Assays:
# HIV-1 (IIIB) = assay: Antiviral assay in MT-4 cells (HIV MT-4 antiviral assay); format: cell-based; details: Human immunodeficiency virus 1, IIIB, MT4, 120 h, HIV-1 (IIIB) in MT-4 cells, 5 days incubation
# Description: Compounds were tested in a high-throughput 384-well assay format for their ability to inhibit the replication of HIV-1 (IIIB) in MT-4 cells. Compounds were serially diluted (1:3) in DMSO on 384-well polypropylene plates and further diluted 200-fold into complete RPMI media (10% FBS, 1% P/S) using the Biotek Micro Flow and Labcyte ECHO acoustic dispenser. Each plate contained up to 8 test compounds, with negative (No Drug Control) and 5 μM AZT positive controls. MT-4 cells were pre-infected with 10 μL of either RPMI (mock-infected) or a fresh 1:250 dilution of HIV-1 IIIB concentrated virus stock. Infected and uninfected MT-4 cells were further diluted in complete RPMI media and added to each plate using a Micro Flow dispenser. After 5 days incubation in a humidified and temperature controlled incubator (37° C.), Cell Titer Glo (Promega) was added to the assay plates and chemiluminescence read using an Envision plate-reader.
# [1] = Cytotoxicity assay in MT-4 cells; format: cell-based, human; details: human, uninfected MT-4 cells, 5 days incubation; read-out: CC50
# Description: Each plate contained up to 8 test compounds, with negative (No Drug Control) and 5 μM AZT positive controls. MT-4 cells were pre-infected with 10 μL of either RPMI (mock-infected) or a fresh 1:250 dilution of HIV-1 IIIB concentrated virus stock. Infected and uninfected MT-4 cells were further diluted in complete RPMI media and added to each plate using a Micro Flow dispenser. After 5 days incubation in a humidified and temperature controlled incubator (37° C.), Cell Titer Glo (Promega) was added to the assay plates and chemiluminescence read using an Envision plate-reader. […] Assays were performed as above except uninfected MT-4 cells were added to each well containing test compound. In addition, 10 μM puromycin was added to the last column of each assay plate to assess a base level of cytotoxicity.
Compound,EC50 (HIV-1 (IIIB); read-out: EC50) [nM],CC50 at 5 days [1] [µM],EC50 (HIV-1 (IIIB)) [nM]
"C[C@H]1CCCN2C[C@H]1n1cc(C(=O)NCc3c(F)cc(F)cc3F)c(=O)c(O)c1C2=O [Example 170, (6S,7S)-12-hydroxy-6-methyl-1,11-dioxo-N-(2,4,6-trifluorobenzyl)-1,4,5,6,7,11-hexahydro-3H-2,7-methanopyrido[1,2-a][1,4]diazonine-10-carboxamide]",1.21,9.86,
"CO[C@H]1CC[C@H]2CN(C1)C(=O)c1c(O)c(=O)c(C(=O)NCc3c(F)cc(F)cc3F)cn12 [Example 91, (4S,7S)-12-hydroxy-4-methoxy-1,11-dioxo-N-(2,4,6-trifluorobenzyl)-1,4,5,6,7,11-hexahydro-3H-2,7-methanopyrido[1,2-a][1,4]diazonine-10-carboxamide]",23.2,> 50,
"O=C(NCc1ccc(F)cc1F)c1cn2c(c(O)c1=O)C(=O)N1C[C@@H]2CCc2cc(Cl)ccc21 [Example 49-1, (12S)-2-chloro-N-(2,4-difluorobenzyl)-7-hydroxy-6,8-dioxo-6,8,13,14-tetrahydro-12H-5,12-methanobenzo[e]pyrido[1,2-a][1,4]diazonine-9-carboxamide]",36.5,> 15.7,
"O=C(NCc1c(F)cc(F)cc1F)c1cn2c(c(O)c1=O)C(=O)N1CCCC2CC1 (racemic) [Example 24, 11-hydroxy-1,10-dioxo-N-(2,4,6-trifluorobenzyl)-1,3,4,5,6,10-hexahydro-2,6-ethanopyrido[1,2-a][1,4]diazocine-9-carboxamide]",27.3,13.8,
"O=C(NCc1c(F)cc(F)cc1F)c1cn2c(c(O)c1=O)C(=O)N1CCc3ccccc3[C@@H]2C1 (single isomer, unassigned) [Example 63-2]",8.14,14.3,
"CC12CCCCN(C1)C(=O)c1c(O)c(=O)c(C(=O)NCc3c(F)cc(F)cc3F)cn12 (stereo not drawn) [Example 18, 12-hydroxy-7-methyl-1,11-dioxo-N-(2,4,6-trifluorobenzyl)-1,4,5,6,7,11-hexahydro-3H-2,7-methanopyrido[1,2-a][1,4]diazonine-10-carboxamide]",1.4,29.4,
"CC1(F)CCCN2CC1n1cc(C(=O)NCc3ccc(F)cc3F)c(=O)c(O)c1C2=O (single isomer, unassigned) [Example 17-1a, N-(2,4-difluorobenzyl)-6-fluoro-12-hydroxy-6-methyl-1,11-dioxo-1,4,5,6,7,11-hexahydro-3H-2,7-methanopyrido[1,2-a][1,4]diazonine-10-carboxamide]",1.5,12.9,
"O=C(NCc1ccc(F)cc1F)c1cn2c(c(O)c1=O)C(=O)N1CCCOCC2C1 (racemic) [rac-1, N-(2,4-Difluorobenzyl)-13-hydroxy-1,12-dioxo-1,4,5,7,8,12-hexahydro-3H-2,8-methanopyrido[1,2-d][1,4,7]oxadiazecine-11-carboxamide]",3.9,> 47.9,
"Cn1cc2c(n1)C[C@H]1CN(C2)C(=O)c2c(O)c(=O)c(C(=O)NCc3c(F)cc(F)cc3F)cn21 [Example 87-1, (12S)-7-hydroxy-2-methyl-6,8-dioxo-N-(2,4,6-trifluorobenzyl)-2,4,6,8,12,13-hexahydro-5,12-methanopyrazolo[4,3-f]pyrido[1,2-a][1,4]diazonine-9-carboxamide]",6.09,> 50,
"O=C(NCc1ccc(F)cc1F)c1cn2c(c(O)c1=O)C(=O)N1CCCC2CC1 (stereo not drawn) [Example 23, N-(2,4-difluorobenzyl)-11-hydroxy-1,10-dioxo-1,3,4,5,6,10-hexahydro-2,6-ethanopyrido[1,2-a][1,4]diazocine-9-carboxamide]",59.9,12,
"CC(=O)N1CCN2CC(C1)n1cc(C(=O)NCc3ccc(F)cc3F)c(=O)c(O)c1C2=O (stereo not drawn) [Example 31, 5-acetyl-N-(2,4-difluorobenzyl)-12-hydroxy-1,11-dioxo-1,4,5,6,7,11-hexahydro-3H-2,7-methanopyrido[1,2-a][1,4,7]triazonine-10-carboxamide]",> 100,> 50,
"CCC1CCCN2CC1n1cc(C(=O)NCc3ccc(F)cc3F)c(=O)c(O)c1C2=O (stereo not drawn) [Example 106, N-(2,4-difluorobenzyl)-6-ethyl-12-hydroxy-1,11-dioxo-1,4,5,6,7,11-hexahydro-3H-2,7-methanopyrido[1,2-a][1,4]diazonine-10-carboxamide]",2.32,6.84,
"O=C(NCc1c(F)cc(F)cc1F)c1cn2c(c(O)c1=O)C(=O)N1C[C@@H]2CCc2cccc(F)c21 [Example 46-1, (12S)-4-fluoro-7-hydroxy-6,8-dioxo-N-(2,4,6-trifluorobenzyl)-6,8,13,14-tetrahydro-12H-5,12-methanobenzo[e]pyrido[1,2-a][1,4]diazonine-9-carboxamide]",90.2,9.24,
"O=C(NCc1cccc(Cl)c1F)c1cn2c(c(O)c1=O)C(=O)N1CCCC[C@H]2C1 [Example 126, (7S)—N-(3-chloro-2-fluorobenzyl)-12-hydroxy-1,11-dioxo-1,4,5,6,7,11-hexahydro-3H-2,7-methanopyrido[1,2-a][1,4]diazonine-10-carboxamide]",,15.4,4.75
"O=C(NCc1ccc(F)cc1Cl)c1cn2c(c(O)c1=O)C(=O)N1CCCC[C@H]2C1 [Example 152, (7S)—N-(2-chloro-4-fluoro-benzyl)-12-hydroxy-1,11-dioxo-1,4,5,6,7,11-hexahydro-3H-2,7-methanopyrido[1,2-a][1,4]diazonine-10-carboxamide]",4.05,12,

# Continued, in another order:
EC50 (HIV-1 (IIIB); read-out: EC50) [nM],Compound,CC50 at 5 days [1] [µM],EC50 (HIV-1 (IIIB)) [nM]
2.78,"C[C@]1(F)CC[C@H]2CN(C1)C(=O)c1c(O)c(=O)c(C(=O)NCc3c(F)cc(F)cc3F)cn12 [Example 132-2, (4S,7S)-4-fluoro-12-hydroxy-4-methyl-1,11-dioxo-N-(2,4,6-trifluorobenzyl)-1,4,5,6,7,11-hexahydro-3H-2,7-methanopyrido[1,2-a][1,4]diazonine-10-carboxamide]",25.7,
2.58,"C[C@@]1(F)CCN2C[C@H](C1)n1cc(C(=O)NCc3c(F)cc(F)cc3F)c(=O)c(O)c1C2=O [Example 115-2, (5R,7S)-5-fluoro-12-hydroxy-5-methyl-1,11-dioxo-N-(2,4,6-trifluorobenzyl)-1,4,5,6,7,11-hexahydro-3H-2,7-methanopyrido[1,2-a][1,4]diazonine-10-carboxamide]",28.1,
7.37,"O=C(NCc1ccc(F)cc1F)c1cn2c(c(O)c1=O)C(=O)N1Cc3ccc(Cl)cc3C[C@@H]2C1 (single isomer, unassigned) [Example 128-2]",> 50,
3.05,"O=C(NCc1c(F)cc(F)cc1F)c1cn2c(c(O)c1=O)C(=O)N1CCSC[C@@H]2C1 [Example 155-1, (7S)-12-hydroxy-1,11-dioxo-N-(2,4,6-trifluorobenzyl)-1,3,4,6,7,11-hexahydro-2,7-methanopyrido[1,2-d][1,4,7]thiadiazonine-10-carboxamide]",39.5,
6.05,"O=C(NCc1ccc(F)c(Cl)c1F)c1cn2c(c(O)c1=O)C(=O)N1C[C@H]2CCCc2ccccc21 [Example 97-2, (6R)—N-(3-chloro-2,4-difluorobenzyl)-1-hydroxy-2,15-dioxo-2,6,7,8,9,15-hexahydro-6,14-methanobenzo[e]pyrido[1,2-a][1,4]diazecine-3-carboxamide]",16.3,
3.02,"COC1CCCN2C[C@H]1n1cc(C(=O)NCc3c(F)cc(F)cc3F)c(=O)c(O)c1C2=O (stereo partly drawn) [Example 99-2, (7R)-12-hydroxy-6-methoxy-1,11-dioxo-N-(2,4,6-trifluorobenzyl)-1,4,5,6,7,11-hexahydro-3H-2,7-methanopyrido[1,2-a][1,4]diazonine-10-carboxamide]",> 23.4,
1.53,"COC1CCCN2C[C@@H]1n1cc(C(=O)NCc3c(F)cc(F)cc3F)c(=O)c(O)c1C2=O (stereo partly drawn) [Example 99-1, (7S)-12-hydroxy-6-methoxy-1,11-dioxo-N-(2,4,6-trifluorobenzyl)-1,4,5,6,7,11-hexahydro-3H-2,7-methanopyrido[1,2-a][1,4]diazonine-10-carboxamide]",> 22.2,
4.43,"O=C(NCc1c(F)cc(F)cc1F)c1cn2c(c(O)c1=O)C(=O)N1CCSC[C@H]2C1 [Example 155-2, (7R)-12-hydroxy-1,11-dioxo-N-(2,4,6-trifluorobenzyl)-1,3,4,6,7,11-hexahydro-2,7-methanopyrido[1,2-d][1,4,7]thiadiazonine-10-carboxamide]",> 41.3,
535,"O=C(NCc1ccc(F)cc1F)c1cn2c(c(O)c1=O)C(=O)N1C[C@@H]2COc2cc(F)c(F)cc21 [Example 92-1, (6R)—N-(2,4-difluorobenzyl)-10,11-difluoro-1-hydroxy-2,14-dioxo-2,6,7,14-tetrahydro-6,13-methanobenzo[b]pyrido[2,1-f][1,4,7]oxadiazonine-3-carboxamide]",> 50,
